Assay results taken from the supplement of paper PMC4862054.

What was measured:
BT-549 [1] = test: normalised viability (% of control), CellTiter-Blue; higher = more viable cells (about 100 = DMSO control); conditions: 100 nM; incubation time: 72 h
Summary of the method: (§1)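 Seeded at 20 µl suspension per well onto compound-loaded 384-well plates, breast cancer cell lines were incubated 72 h. CellTiter-Blue fluorescence at 560/590 nm was then read, with each plate normalised to vehicle (100) and a positive kill control (0). Normalised viability is reported at a single listed concentration of the series.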

CAL-148 [2] = test: as above; conditions: 10 nM; incubation time: 72 h
Summary of the method: as §1

MDA-MB-453 [3] = test: as above; conditions: 10 nM; incubation time: 72 h
Summary of the method: as §1

MFM-223 [4] = test: as above; conditions: 100 nM; incubation time: 72 h
Summary of the method: as §1

BT-474 = test: as above; conditions: incubation time: 72 h
Summary of the method: as §1

BT-549 [5] = test: as above; conditions: incubation time: 72 h
Summary of the method: as §1

CAL-120 [6] = test: as above; conditions: incubation time: 72 h
Summary of the method: as §1

CAL-148 [7] = test: as above; conditions: incubation time: 72 h
Summary of the method: as §1

CAL-51 = test: as above; conditions: incubation time: 72 h
Summary of the method: as §1

CAL-85-1 = test: as above; conditions: incubation time: 72 h
Summary of the method: as §1

DU-4475 = test: as above; conditions: incubation time: 72 h
Summary of the method: as §1

HCC1143 = test: as above; conditions: incubation time: 72 h
Summary of the method: as §1

HCC1599 = test: as above; conditions: incubation time: 72 h
Summary of the method: as §1

HCC1937 = test: as above; conditions: incubation time: 72 h
Summary of the method: as §1

HDQ-P1 = test: as above; conditions: incubation time: 72 h
Summary of the method: as §1

Hs578T = test: as above; conditions: incubation time: 72 h
Summary of the method: as §1

MDA-MB-231 = test: as above; conditions: incubation time: 72 h
Summary of the method: as §1

MDA-MB-436 = test: as above; conditions: incubation time: 72 h
Summary of the method: as §1

MDA-MB-453 [8] = test: as above; conditions: incubation time: 72 h
Summary of the method: as §1

MDA-MB-468 = test: as above; conditions: incubation time: 72 h
Summary of the method: as §1

MFM-223 [9] = test: as above; conditions: incubation time: 72 h
Summary of the method: as §1

SK-BR-3 = test: as above; conditions: incubation time: 72 h
Summary of the method: as §1

CAL-120 [10] = test: drug sensitivity score (DSS), CellTox Green (DSS (AUC-based score)); higher = stronger drug effect (viability inhibition or cytotoxicity); extreme values may be limits of the assay; conditions: incubation time: 72 h
Summary of the method: (§2)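 Normalisation on every plate relied on 0.1 % DMSO and a positive kill control. The plates, 384-well format, held compound at 5 concentrations 10-fold apart across a compound-specific 10,000-fold range, and breast cancer cell lines in 20 µl suspension were incubated on them for 72 h before CellTox Green and then CellTiter-Glo readings. The drug sensitivity score derives from the area under the fitted dose-response curve.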

CAL-148 [11] = test: as above; conditions: incubation time: 72 h
Summary of the method: as §2

CN(C)/N=N/c1[nH]cnc1C(N)=O [Dacarbazine]
normalised viability (BT-549 [1]): 99.4% | normalised viability (CAL-148 [2]): 96.4% | normalised viability (MDA-MB-453 [3]): 99.2% | normalised viability (MFM-223 [4]): 88.8% | normalised viability (BT-474; 10 nM): 126% | normalised viability (BT-474; 1000 nM): 122% | normalised viability (BT-474; 10000 nM): 119% | normalised viability (BT-549 [5]; 10 nM): 103% | normalised viability (BT-549 [5]; 1000 nM): 89.2% | normalised viability (BT-549 [5]; 10000 nM): 106% | normalised viability (CAL-120 [6]; 10 nM): 88.2% | normalised viability (CAL-120 [6]; 1000 nM): 83.8% | normalised viability (CAL-120 [6]; 10000 nM): 79.5% | normalised viability (CAL-148 [7]; 3 nM): 84.4% | normalised viability (CAL-148 [7]; 30 nM): 96% | normalised viability (CAL-148 [7]; 100 nM): 99.2% | normalised viability (CAL-51; 3 nM): 92.7% | normalised viability (CAL-51; 30 nM): 88.9% | normalised viability (CAL-51; 100 nM): 88.9% | normalised viability (CAL-85-1; 3 nM): 95.8% | normalised viability (CAL-85-1; 30 nM): 84.6% | normalised viability (CAL-85-1; 100 nM): 90.5% | normalised viability (DU-4475; 3 nM): 90.4% | normalised viability (DU-4475; 30 nM): 89.6% | normalised viability (DU-4475; 100 nM): 92.4% | normalised viability (HCC1143; 10 nM): 76.3% | normalised viability (HCC1143; 1000 nM): 106% | normalised viability (HCC1143; 10000 nM): 84.2% | normalised viability (HCC1599; 10 nM): 93.8% | normalised viability (HCC1599; 1000 nM): 97.1% | normalised viability (HCC1599; 10000 nM): 86.7% | normalised viability (HCC1937; 10 nM): 98% | normalised viability (HCC1937; 1000 nM): 87.3% | normalised viability (HCC1937; 10000 nM): 98.5% | normalised viability (HDQ-P1; 3 nM): 107% | normalised viability (HDQ-P1; 30 nM): 100% | normalised viability (HDQ-P1; 100 nM): 110% | normalised viability (Hs578T; 10 nM): 119% | normalised viability (Hs578T; 1000 nM): 113% | normalised viability (Hs578T; 10000 nM): 94.8% | normalised viability (MDA-MB-231; 10 nM): 101% | normalised viability (MDA-MB-231; 1000 nM): 89.3% | normalised viability (MDA-MB-231; 10000 nM): 99% | normalised viability (MDA-MB-436; 10 nM): 100% | normalised viability (MDA-MB-436; 1000 nM): 78.7% | normalised viability (MDA-MB-436; 10000 nM): 93.8% | normalised viability (MDA-MB-453 [8]; 3 nM): 103% | normalised viability (MDA-MB-453 [8]; 30 nM): 102% | normalised viability (MDA-MB-453 [8]; 100 nM): 102% | normalised viability (MDA-MB-468; 10 nM): 104% | normalised viability (MDA-MB-468; 1000 nM): 104% | normalised viability (MDA-MB-468; 10000 nM): 88.8% | normalised viability (MFM-223 [9]; 10 nM): 90.4% | normalised viability (MFM-223 [9]; 1000 nM): 89.3% | normalised viability (MFM-223 [9]; 10000 nM): 104% | normalised viability (SK-BR-3; 10 nM): 104% | normalised viability (SK-BR-3; 1000 nM): 95.3% | normalised viability (SK-BR-3; 10000 nM): 100% | drug sensitivity score (CAL-120 [10]): 0 | drug sensitivity score (CAL-148 [11]): 2.9

Cc1ccc(-n2nc(C(C)(C)C)cc2NC(=O)Nc2ccc(OCCN3CCOCC3)c3ccccc23)cc1 [Doramapimod]
normalised viability (BT-549 [1]): 98.7% | normalised viability (CAL-148 [2]): 95.3% | normalised viability (MDA-MB-453 [3]): 106% | normalised viability (MFM-223 [4]): 109% | normalised viability (BT-474; 10 nM): 101% | normalised viability (BT-474; 1000 nM): 101% | normalised viability (BT-474; 10000 nM): 96.9% | normalised viability (BT-549 [5]; 10 nM): 98.1% | normalised viability (BT-549 [5]; 1000 nM): 104% | normalised viability (BT-549 [5]; 10000 nM): 84.7% | normalised viability (CAL-120 [6]; 10 nM): 95.4% | normalised viability (CAL-120 [6]; 1000 nM): 81.2% | normalised viability (CAL-120 [6]; 10000 nM): 95.8% | normalised viability (CAL-148 [7]; 3 nM): 90% | normalised viability (CAL-148 [7]; 30 nM): 90.9% | normalised viability (CAL-148 [7]; 100 nM): 87.5% | normalised viability (CAL-51; 3 nM): 116% | normalised viability (CAL-51; 30 nM): 105% | normalised viability (CAL-51; 100 nM): 95.7% | normalised viability (CAL-85-1; 3 nM): 94.4% | normalised viability (CAL-85-1; 30 nM): 85.4% | normalised viability (CAL-85-1; 100 nM): 80.4% | normalised viability (DU-4475; 3 nM): 123% | normalised viability (DU-4475; 30 nM): 89.1% | normalised viability (DU-4475; 100 nM): 97.1% | normalised viability (HCC1143; 10 nM): 94.2% | normalised viability (HCC1143; 1000 nM): 92.1% | normalised viability (HCC1143; 10000 nM): 90.3% | normalised viability (HCC1599; 10 nM): 93.8% | normalised viability (HCC1599; 1000 nM): 110% | normalised viability (HCC1599; 10000 nM): 91.2% | normalised viability (HCC1937; 10 nM): 45.3% | normalised viability (HCC1937; 1000 nM): 90.2% | normalised viability (HCC1937; 10000 nM): 97.9% | normalised viability (HDQ-P1; 3 nM): 88.8% | normalised viability (HDQ-P1; 30 nM): 78% | normalised viability (HDQ-P1; 100 nM): 82.4% | normalised viability (Hs578T; 10 nM): 111% | normalised viability (Hs578T; 1000 nM): 120% | normalised viability (Hs578T; 10000 nM): 113% | normalised viability (MDA-MB-231; 10 nM): 99.2% | normalised viability (MDA-MB-231; 1000 nM): 99% | normalised viability (MDA-MB-231; 10000 nM): 109% | normalised viability (MDA-MB-436; 10 nM): 84.4% | normalised viability (MDA-MB-436; 1000 nM): 33.9% | normalised viability (MDA-MB-436; 10000 nM): 71.5% | normalised viability (MDA-MB-453 [8]; 3 nM): 109% | normalised viability (MDA-MB-453 [8]; 30 nM): 105% | normalised viability (MDA-MB-453 [8]; 100 nM): 106% | normalised viability (MDA-MB-468; 10 nM): 96% | normalised viability (MDA-MB-468; 1000 nM): 115% | normalised viability (MDA-MB-468; 10000 nM): 119% | normalised viability (MFM-223 [9]; 10 nM): 103% | normalised viability (MFM-223 [9]; 1000 nM): 92.8% | normalised viability (MFM-223 [9]; 10000 nM): 81.5% | normalised viability (SK-BR-3; 10 nM): 91.1% | normalised viability (SK-BR-3; 1000 nM): 98.2% | normalised viability (SK-BR-3; 10000 nM): 97.1% | drug sensitivity score (CAL-120 [10]): 0 | drug sensitivity score (CAL-148 [11]): 0
